Key:
TFE3 and FLCN = TFE3 and FLCN subcellular localization upon dimerizer-induced mitophagy in U2OS cells; type: cell-based; settings: 25 nM, 3 hours; control KO, RB1CC1 KO, GABARAP triple KO U2OS cells; FIG. 50
Method: (§1) For high content image acquisition, cells were plated in 96-well glass bottom, black wall plates (Greiner, #655892) or 384-well polystyrene, black-wall plates (Greiner, #781091) and grown overnight to 70% confluency. Treatments were performed as indicated. Cells were fixed for 10 minutes in either −20° C. methanol or 4% paraformaldehyde (Electron Microscopy Sciences). Cells were blocked and permeabilized in a solution containing 1:1 Odyssey blocking buffer (LiCor)/PBS (Invitrogen) with 0.1% Triton X-100 (Sigma) and 1% normal goat serum (Invitrogen) for 1 hour at room temperature. Primary antibodies were added overnight at 4° C. in blocking buffer described above. After washing plates with PBS using an EL-406 plate washer (BioTek), secondary Alexa-conjugated antibodies (Life Technologies) were diluted 1:1,000 in blocking solution and applied for 1 hour at room temperature. Cells were then washed again in PBS as described and imaged using an INCELL 6500 high-content imager (GE Healthcare). Images were analyzed using the GE InCarta software.

LC3 [1] = assay: LC3 lipidation (LC3-I to LC3-II conversion), Western blot and cell images; type: cell-based; settings: for LC3 lipidation (conversion of LC3 "I" form to "II" form): wild type (WT) and autophagy-deficient cells, FIGS. 1, 2, 3
Excerpt: (§2) For preparation of total cell lysates, cells were lysed in RIPA buffer (#9806, Cell Signaling Technology) supplemented with sodium dodecyl sulfate to 1% final concentration (SDS, Boston BioProducts) and protease inhibitor tablets (Complete EDTA-free, Roche). Lysates were homogenized by sequential passaging through Qiashredder columns (Qiagen), and protein levels were quantified by Lowry DC protein assay (Bio-Rad). Proteins were denatured in 6×Laemmli SDS loading buffer (Boston BioProducts) at 100° C. for 5 minutes.
(§3) Equivalent amounts of total proteins were separated on Tris-Glycine TGx SDS-PAGE gels (Bio-Rad) for Western blotting. Proteins were transferred to nitrocellulose using standard methods and membranes were blocked in 5% non-fat dry milk (Cell Signaling Technology) in TBS with 0.2% Tween-20 (Boston BioProducts). Primary antibodies were diluted in 5% bovine serum albumin (BSA, Cell Signaling Technology) in TBS with 0.2% Tween-20 and were incubated with membranes at 4° C. overnight. HRP-conjugated secondary antibodies were diluted in blocking solution (1:20,000, ThermoFisher) and incubated with membranes at room temperature for 1 hour. Western blots were developed using West PicoPLUS Super Signal ECL reagents (Pierce) and film (GEHealthcare).

LC3 [2] = assay: LC3 puncta co-localized with LAMP1 in primary bone marrow-derived macrophages, wild-type vs ATG16L1 K490A knock-in; type: cell-based, mouse; settings: FIG. 12
Method: For LC3 and LAMP1 staining in primary BMDMs, cells were plated on 18 mm coverslips. The next day, cells were treated as indicated and cells were fixed in ice cold methanol as described above. Cells were then blocked in PBS+5% BSA for 1 hour before addition of primary antibodies (anti-LC3A/B, CST #4108, 1:100; anti-LAMP1, BD #555798, 1:100) and diluted in blocking buffer overnight at 4° C. Cells were then washed and incubated with fluorescent secondary antibodies in blocking buffer for 1 hour at room temperature. Cells were washed in PBS incubated with DAPI and mounted on glass slides using Prolong anti-fade reagent (Life Technologies).
The K490A point mutation was introduced into C57/BL6 mice via direct zygote injection of CRISPR/Cas9 reagents. Briefly, a single stranded guide sequence was designed and synthesized along with a tracrRNA from Dhamacon. A repair donor single stranded DNA sequence was designed to introduce the K490A point mutation and mutate the PAM sequence to stop re-targeting of the Cas9 complex to already edited DNA. These reagents, along with recombinant Cas9, were injected into mouse zygotes. Pups born from these injections were genotyped via Transnetyx and heterozogous founders were bred with wild-type mice to obtain pure heterozygote animals. Further breeding yielded mice homozygous for the K490A mutation. […]

TFEB [3] = assay: TFEB activation in ATG16L1 KO mouse macrophages reconstituted with ATG16L1 WD40 point mutants; type: cell-based; settings: immortalized ATG16L1 KO mouse macrophages; FIG. 21
Method: For endogenous TFEB staining in mouse macrophages, cells were fixed in 3.7% formaldehyde for 15 minutes at room temperature, washed in PBS and permeabilized in 0.2% triton/PBS for 5 minutes. Cells were then processed as above for primary (anti-TFEB, Bethyl Laboratories, #A303-673A, 1:200) and secondary antibodies. Images were acquired using a Confocal Zeiss LSM 780 microscope (Carl Zeiss Ltd) equipped with a 40×oil immersion 1.40 numerical aperture (NA) objective using Zen software (Carl Zeiss Ltd). Analysis was performed using Image J. For nuclear cytosol quantification, the ratio of fluorescent intensity of TFEB within the DAPI was mask versus the cytosol of 30 cells across 2 independent experiments were measured.

GPNMB = GPNMB protein levels (TFEB target gene) upon chronic treatment, Western blot; type: cell-based; settings: FNIP1/2 DKO cells reconstituted with FNIP1; FIG. 44D
Excerpt: as §3, with “For preparation of total cell lysates, cells were lysed in RIPA buffer (#9806, Cell Signaling Technology) supplemented with sodium dodecyl sulfate to 1% final concentration (SDS, Boston BioProducts) and protease inhibitor tablets (Complete EDTA-free, Roche). Lysates were homogenized by sequential passaging through Qiashredder columns (Qiagen), and protein levels were quantified by Lowry DC protein assay (Bio-Rad). Proteins were denatured in 6×Laemmli SDS loading buffer (Boston BioProducts) at 100° C. for 5 minutes. Equivalent” for “Equivalent”

TFEB [4] = assay: TFEB activation (Western blot / nuclear accumulation) in cell lines; type: cell-based; settings: for TFEB activation under co-treatment with BafA1: FIG. 16
Excerpt: as §2, §3, §1

[5] = system: U2OS cells expressing mKeima, FRB-p62, and FKBP-FIS1; assay: Mitophagy efficiency, Keima fluorescence shift assay in U2OS cells; type: cell-based; settings: dimerizer-induced mitophagy; FIG. 49

Compound	LC3 lipidation (conversion of LC3 "I" form to "II" form) (LC3 [1])	LC3 puncta formation co-localized with LAMP1, wild-type vs ATG16L1^K490A cells (LC3 [2])	TFEB activation in macrophages with ATG16L1-F467A or ATG16L1-K490A (TFEB [3])	TFEB activation under co-treatment with BafA1 (TFEB [4])	further results
CO[C@H]1[C@@H](O)[C@H](C)C[C@H](C)/C=C/C=C/C=C(\C)[C@@H](c2c[nH]c3c(C)cccc23)C[C@@H]2CC[C@@H](C)[C@@](O)(O2)C(=O)C(=O)N2CCCC[C@H]2C(=O)O[C@H]([C@H](C)C[C@@H]2CC[C@@H](O)[C@H](OC)C2)C[C@H](O)[C@H](C)/C=C(\C)[C@H]1O [AP21967]	–	–	–	–	TFE3 nuclear localization and FLCN punctate structures (TFE3 and FLCN): seen in CTRL and RBICC1_KO (autophagy-deficient) cells but not in GABARAP_TKO cells
COc1ccc(-c2ccc3c(N4CCOC[C@@H]4C)nc(N4CCOC[C@@H]4C)nc3n2)cc1CO [AZD8055]	able to regulate LC3 lipidation in WT but not autophagy-deficient cells	sensitivity to the ATG16L1^K490A mutation was not observed	activated TFEB irrespective of ATG16L1 status	did not prevent TFEB activation	LC3 lipidation: dependence on VPS34 inhibition and Bafilomycin A1 co-treatment (LC3 [1]; FIG. 4): induced conversion of LC3 in a manner sensitive to VPS34 inhibition and was potentiated with the vATPase inhibitor Bafilomycin A1 (BafA1); GPNMB protein levels (GPNMB): largely suppressed; TFEB activation (with GPNMB readout) (TFEB [4]; FIG. 44D): robust TFEB activation; TFEB nuclear accumulation / activation with SopF expression (TFEB [4]; SopF expression vs SopF negative controls, FIG. 15): did not impact TFEB activation
CO/C1=C\C(C)=C\[C@@H](C)[C@@H](O)[C@@H](C)C/C(C)=C/C=C/[C@H](OC)[C@@H]([C@@H](C)[C@@H](O)[C@H](C)[C@@]2(O)C[C@@H](O)[C@H](C)[C@@H](C(C)C)O2)OC1=O [BafA1, Bafilomycin A1]	–	–	–	–	Keima signal (mitophagy) under co-treatment [5]: blocked the Keima signal
Cc1ccc(S(=O)(=O)Nc2ccccc2N2CCCCC2)s1 [MK6-83]	rapid conversion of LC3 from its cytoplasmic “I” form to the lipidated, punctate “II” form in both wild type (WT) and autophagy-deficient cells	–	–	prevented	–
CC1CC(C)(C)N(C(=O)CN2C(=O)c3ccccc3C2=O)c2ccccc21 (stereo not drawn) [ML-SA1]	rapid conversion of LC3 from its cytoplasmic “I” form to the lipidated, punctate “II” form in both wild type (WT) and autophagy-deficient cells	did not occur in ATG16L1^K490A cells	did not exhibit TFEB activation	–	–
